Ends that are not written are not given here. BA1 = not defined here
Columns and labels:
Format in all cases: biochemical
[1] = target: T1, protein kinase A (Bos taurus, UniProt P00517); experiment: Phosphorylation of glass-immobilised peptide array by protein kinase A (FIG. 9, Example 33); conditions: protein kinase A 10 U/mL, ATP/γ32P-ATP, 30 min at 25° C., maleinimido-functionalised glass, PhosphorImager
T1 construct: purchased Sigma P26452 as printed
Procedure: FIG. 9. Precisely 43 serine and/or threonine-containing peptides (potential substrate peptides for kinases) and the corresponding control peptides, each modified at the N-terminus with the dipeptide cysteinyl-β-alanine, were coupled to a maleinimido-functionalised glass surface by a Michael addition (Example 18). In the control peptides the serine and/or threonine residues were replaced by alanine, the sequence remaining otherwise the same. The application was carried out using a NanoPlotter from Gesim. The spot-to-spot distance was 1 mm and 0.8 nL of a peptide solution in 100 mM PBS buffer pH 7.8, containing 20% glycerin, was applied per spot. Here a filled circle represents a serine- or threonine-containing potential substrate peptide and an open circle stands for a control peptide. Three identical subarrays were applied to the glass surface. The numbering of the spots can be seen in FIG. 9C, the sequences of the peptides used are obtained from Example 18. […] After incubation for 30 min at 25° C. the phosphorylation of the corresponding peptides was detected using a FUJIFILM PhosphorImager (Example 39). […]
(§1) After drying the glass surface the quantity of radioactive phosphate incorporated in the glass-surface-bound peptides was determined using a PhosphorImager system (FLA-3000, FUJIFILM). […]

[2] = system: protein kinase C; experiment: Phosphorylation of glass-immobilised peptide array by protein kinase C (FIG. 8, Example 32); conditions: protein kinase C 10 U/mL, ATP/γ32P-ATP, 30 min at 25° C., maleinimido-functionalised glass, PhosphorImager
Procedure: FIG. 8. Precisely 43 serine and/or threonine-containing peptides (potential substrate peptides for kinases) and the corresponding control peptides, each modified at the N-terminus with the dipeptide cysteinyl-β-alanine, were coupled to a maleinimido-functionalised glass surface by a Michael addition (Example 18). In the control peptides the serine and/or threonine residues were replaced by alanine, the sequence remaining otherwise the same. The application was carried out using a NanoPlotter from Gesim. The spot-to-spot distance was 1 mm and 0.8 nL of a peptide solution in 100 mM PBS buffer pH 7.8, containing 20% glycerin, was applied per spot. Here a filled circle represents a serine- or threonine-containing potential substrate peptide and an open circle stands for a control peptide. Three identical subarrays were applied to the glass surface. The numbering of the spots can be seen in FIG. 8C, the sequences of the peptides used are obtained from Example 18. After application of the peptides, the modified glass surface was first pre-incubated for 10 minutes using 10 ml of 100 μM ATP solution in 50 mM of sodium phosphate buffer pH 7.5. The modified glass surface was then covered with a second glass surface and Protein kinase C (10 U/mL) together with ATP/γ^32P-ATP mixture (100 μM/mL; 100 μCi/mL) was then inserted into the intermediate space formed thereby by means of capillary force. After incubation for 30 min at 25° C. the phosphorylation of the corresponding peptides was detected using a FUJIFILM PhosphorImager (Example 38). The spots having higher signal intensity in all three subarrays were assigned to the corresponding peptides phosphorylated by the protein kinase C. […] It is thus clear that such an assembly is suitable for characterising the substrate specificity of a kinase, such as protein kinase C, for example.
Precisely 43 serine- and/or threonine-containing peptides (potential substrate peptides for kinases) and the corresponding control peptides, each modified at the N-terminus with the dipeptide cysteinyl-β-alanine, were coupled to a maleinimido-functionalised glass surface by a Michael addition (see Example 18). The numbering of the spots can be seen from FIG. 8C and the sequences of the peptides used are obtained from Example 18. After application of the peptide, the modified glass surface was first pre-incubated using 10 mL of 100 μM ATP […] solution in 50 mM sodium phosphate buffer pH 7.5 for […] minutes. The modified glass surface was then covered with a cover glass and protein kinase C (10 U/mL) together with ATP/γ-^32P-ATP mixture (100 μM/mL; 100 μCi/mL) was incorporated in the intermediate space formed by means of capillary force. Incubation was then carried out for 30 min at 25° C. […]
as §1

[3] = target: T1, protein kinase A; experiment: Incubation of modified glass surface (11760 spots) with protein kinase A (FIG. 6, Example 28); conditions: bromoketone-functionalised glass, thioamide linkage, protein kinase A 10 U/mL, 30 min at 25° C.
Procedure: FIG. 6. A glass surface modified with the peptide Leu-Arg-Arg-Ala-Ser-Leu-Gly-thioamide (see Example 24) amino acid sequence was dissolved in 200 mM sodium phosphate buffer pH 5.5 and at room temperature respectively 1 nL of this solution in an assembly of 70 rows and 168 gaps (total 11760) was applied to the bromoketone-functionalised glass surfaces (Example 10) using a NanoPlotter from Gesim. The spot-to-spot distance was 0.3 mm. The glass surfaces thus treated were then subjected to microwave treatment for 2 min and then incubated for 3 hours at room temperature. Pre-incubation was then carried out for 10 minutes using 10 ml of 100 μM ATP solution in 50 mM of sodium phosphate buffer pH 7.5. […] After incubation for 30 min at 25° C. the phosphorylation of the corresponding peptides was detected using a FUJIFILM PhosphorImager. […] It is furthermore clear that the resolution of the PhosphorImager used here is sufficient to analyse more than 11000 measurement points per biochip. […]
After drying the glass surface the quantity of radioactive phosphate incorporated in the glass-surface-bound peptides was determined using a PhosphorImager system (FLA-3000, FUJIFILM) (see FIG. 6).

Substance | recognised and phosphorylated by protein kinase C on the modified glass surface [2] | other results
Arg-Arg-Ile-Ser-Lys-Asp-Asn-Pro-Asp-Tyr-Gln-Gln-Asp-BA1-Cys-NH2 (RRISKDNPDYQQD-{BA1-Cys-NH2}; reading uncertain; also: printed as Arg-Arg-Ile-Ser-Lys-Asp-Asn-Pro-Asp-Tyr-Gln-Gln-Asp-BA1-Cys-NH2) [peptide 83] |  | recognised and phosphorylated by protein kinase A on the modified glass surface [1]: not phosphorylated
Cys-BA1-Ala-Lys-Arg-Arg-Arg-Leu-Ser-Ser-Leu-Arg-Ala-NH2 ({Cys-BA1}-AKRRRLSSLRA-NH2; reading uncertain; also: printed as Cys-BA1-Ala-Lys-Arg-Arg-Arg-Leu-Ser-Ser-Leu-Arg-Ala-NH2) [compound 3] | recognised and phosphorylated | 
Cys-BA1-Gln-Lys-Arg-Pro-Ser-Gln-Arg-Ser-Lys-Tyr-Leu-NH2 ({Cys-BA1}-QKRPSQRSKYL-NH2; reading uncertain; also: printed as Cys-BA1-Gln-Lys-Arg-Pro-Ser-Gln-Arg-Ser-Lys-Tyr-Leu-NH2) [compound 27] | recognised and phosphorylated | 
Cys-BA1-Lys-Lys-Arg-Phe-Ser-Phe-Lys-Lys-Ser-Phe-Lys-Leu-NH2 ({Cys-BA1}-KKRFSFKKSFKL-NH2; reading uncertain; also: printed as Cys-BA1-Lys-Lys-Arg-Phe-Ser-Phe-Lys-Lys-Ser-Phe-Lys-Leu-NH2) [compound 41] | recognised and phosphorylated | 
Cys-BA1-Pro-Leu-Ser-Arg-Thr-Leu-Ser-Val-Ala-Ala-Lys-Lys-NH2 ({Cys-BA1}-PLSRTLSVAAKK-NH2; reading uncertain; also: printed as Cys-BA1-Pro-Leu-Ser-Arg-Thr-Leu-Ser-Val-Ala-Ala-Lys-Lys-NH2) [compound 23] | recognised and phosphorylated | 
Cys-BA1-Pro-Lys-Asp-Pro-Ser-Gln-Arg-Arg-Arg-NH2 ({Cys-BA1}-PKDPSQRRR-NH2; reading uncertain; also: printed as Cys-BA1-Pro-Lys-Asp-Pro-Ser-Gln-Arg-Arg-Arg-NH2) [compound 43] | recognised and phosphorylated | 
Leu-Arg-Arg-Ala-Ser-Leu-Gly-thioamide (LRRASLG-thioamide) |  | linking of the immobilised kinase substrate tolerated by protein kinase A [3]: tolerated by the protein kinase A
